Data as given in US12533390B2, “Methods and compositions for treatment of Endothelin B receptor expressing tumors” (ENB Therapeutics, Inc., priority 2015, dated 2026).
“Also recorded” adds a separate entry of the source.

Key:
[1] = system: SKMEL28 human melanoma cells; assay: SKMEL28 human melanoma xenograft in mice, tumor weight and lung metastases; format: in vivo
Protocol: BQ788 inhibits melanoma growth and metastasis (FIGS. 4A and 4B). […] Mice were implanted with 1×10^6 SKMEL28 human melanoma cells. Tumors were established for 10 days until palpable then 120 ng ([…]) BQ788 dissolved in DMSO was injected IP 3× per week x 6 weeks. Mice were then sacrificed and lungs harvested and tumors weighed. A 75% reduction in tumor weight was observed.

ETBR = molecular target: T1, ETBR (Homo sapiens, UniProt P24530); settings: ETBR antagonist, no method given, cited from earlier work
T1 sequence (P24530 27-442): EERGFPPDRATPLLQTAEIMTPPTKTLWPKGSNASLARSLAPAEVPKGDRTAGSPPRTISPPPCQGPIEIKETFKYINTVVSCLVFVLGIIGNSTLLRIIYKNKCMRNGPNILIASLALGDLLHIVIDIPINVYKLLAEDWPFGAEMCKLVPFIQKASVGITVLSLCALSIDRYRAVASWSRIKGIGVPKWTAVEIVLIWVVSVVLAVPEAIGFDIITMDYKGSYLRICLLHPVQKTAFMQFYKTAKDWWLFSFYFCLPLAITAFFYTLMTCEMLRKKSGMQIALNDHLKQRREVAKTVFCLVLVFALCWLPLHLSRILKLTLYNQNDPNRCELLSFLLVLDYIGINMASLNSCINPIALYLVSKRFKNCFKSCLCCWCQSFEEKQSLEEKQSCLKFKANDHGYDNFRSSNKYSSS

[2] = Body weight of athymic nude mice under intranasal BQ788 over 42 days; format: in vivo
Protocol: FIG. 9. ETAR antagonist and Niacinamide mitigate weight loss from BQ788. Six week old athymic nude mice were administered the ETBR antagonist BQ788 intranasally in 20% DMSO at the indicated ascending doses over a period of 42 days. One group was additionally administered the ETAR antagonist Macitentan orally at a dose of 5 mg/kg daily. The drinking water of these mice was supplemented with the B vitamin niacinamide at a concentration of 0.3 mg/mL. […] Animals thus treated were able to maintain body weight throughout the study. Co-administration of ETAR antagonists and niacinamide with ETBR antagonists mitigated the adverse effects of ETBR antagonists when administered for therapeutic purposes.
ETAR antagonist and Niacinamide mitigate weight loss from BQ788 ([…]). Six week old athymic nude mice (n=3 per group) were administered the ETBR antagonist BQ788 intranasally in 20% DMSO at the indicated ascending doses over a period of 42 days. One group was additionally administered the ETAR antagonist Macitentan orally at a dose of 5 mg/kg daily. The drinking water of these mice was supplemented with the B vitamin niacinamide at a concentration of 0.3 mg/mL. […] Animals thus treated were able to maintain body weight throughout the study. […]

[3] = system: A375 human melanoma cells; assay: Subcutaneous A375 human melanoma xenograft in Nu/J nude mice; format: in vivo; settings: Dabrafenib 100 mg/Kg PO daily, alone or with BQ788 600 ng IP TIW; A375 tumors 150-200 mm3 at start
Protocol: FIG. 7. BQ788 synergizes with Dabrafenib in vivo. A375 human melanoma cells were implanted subcutaneously into the rear flank of Nu/J nude mice and allowed to grow to 150 mm3-200 mm3 prior to randomization and initiation of treatment. The mice received the following treatments: (1) vehicle (n=8), (2) Dabrafenib 100 mg/Kg PO daily (n=5), and (3) Dabrafenib+BQ788 600 ng IP TIW (n=5).
BQ788 synergizes with a bRAF inhibitor in vivo (FIG. 7). A375 human melanoma cells (3×10^6) were implanted subcutaneously into the rear flank of Nu/J nude mice and allowed to grow to 150 mm3-200 mm3 prior to randomization and initiation of treatment. The treatment groups were as follows: (1) vehicle (n=8), Dabrafenib 100 mg/Kg PO daily (n=5), (2) Dabrafenib+BQ788 600 ng IP 3 x per week (n=5).

[4] = system: melanoma cell lines overexpressing ETBR; assay: Mouse melanoma brain metastasis model, xenografts of ETBR-overexpressing melanoma cell lines; format: in vivo, mice; settings: A192621 60 mg/kg/day
Protocol: FIGS. 5A, 5B, 5C, 5D, and 5E. ETBR antagonist inhibits melanoma brain metastasis in mice. […] In this study, lentiviral vectors were used to overexpress ETBR in melanoma cell lines, which were in turn used to implant xenografts in mice.
A192621 inhibits melanoma brain metastasis in mice (FIGS. 5A, 5B, 5C, 5D, and 5E). […] A192621 was administered at a dose of 60 mg/kg/day using a mouse melanoma model. […] In this study, lentiviral vectors were used to overexpress ETBR in melanoma cell lines, which were in turn used to implant xenografts in mice. […]

Question: With CCCC[C@@H](NC(=O)[C@@H](Cc1cn(C(=O)OC)c2ccccc12)NC(=O)[C@H](CC(C)(C)C)NC(=O)N1[C@H](C)CCC[C@@H]1C)C(=O)[O][Na+] [BQ788] as the molecule, how does the “reduction in tumor weight” value ([1]; 120 ng (~60 μg/kg) BQ788 in DMSO IP 3x per week x 6 weeks, SKMEL28 tumors in mice) read?
Answer: 75%

Question: And the “clearance of lung metastases” value ([1]; 120 ng BQ788 IP 3x per week x 6 weeks, lung specimens vs control mice)?
Answer: > 95%

Question: And the IC50 (ETBR; for BQ788 printed as inhibitor of ETBR-related melanoma cell growth)?
Answer: 1.2 nM

Question: And the Ki (ETBR)?
Answer: 17.8 nM

Question: And the “average weight loss relative to baseline body weight” value ([2]; BQ788 alone intranasally in 20% DMSO, ascending doses, end of 42 day study)?
Answer: 5%

Question: What about the “effect on body weight / thriving” value ([2]; BQ788 intranasally, ascending doses over 42 days, with or without Macitentan 5 mg/kg orally daily and niacinamide 0.3 mg/mL in drinking water) of the same molecule?
Answer: failed to thrive

Question: With CC(C)(C)c1nc(-c2cccc(NS(=O)(=O)c3c(F)cccc3F)c2F)c(-c2ccnc(N)n2)s1 [Dabrafenib] as the molecule, how does the tumor growth [3] read?
Answer: retarded the growth of tumors; also recorded: retarded tumor growth

Question: Which CNS melanoma tumors [4] does the source give for CCCOc1ccc([C@H]2[C@H](C(=O)O)[C@@H](c3ccc4c(c3)OCO4)CN2CC(=O)Nc2c(CC)cccc2CC)cc1 [A192621, (2R,3R,4S)-4-(1,3-benzodioxol-5-yl)-1-[2-(2,6-diethylanilino)-2-oxoethyl]-2-(4-propoxyphenyl) pyrrolidine-3-carboxylic acid] here?
Answer: shrinks CNS melanoma tumors

Question: And the brain melanoma metastases [4]?
Answer: shrinks brain melanoma metastases

Question: And the survival [4]?
Answer: increases survival
